Assays:
[1] = system: Aspergillus niger SWA 1011 strain; assay: In vitro cell growth inhibition assay; conditions: Ph-CA 5 μg/ml; Ph-SA 5 μg/ml; amphotericin B 200 ng/ml; Fluconazole 3 μg/ml
[2] = system: Candida albicans ATCC 10231; assay: In vitro cell growth inhibition assay (OD595, filaments); conditions: Ph-CA 5 μg/ml; Ph-SA 5 μg/ml; ampicillin 50 μg/ml; amphotericin B 200 ng/ml; fluconazole 3 μg/ml
[3] = system: SMMC-7721 cells transfected with HCV; format: cell-based, human; conditions: about 100 micrograms per ml

Row | Molecule | effect on growth of Aspergillus niger [1] | effect on growth of Candida albicans [2] | cell count and morphological features versus control [3]
1 | C[C@@H]1[C@H](O)[C@@H](C)/C=C/C=C/C=C/C=C/C=C/C=C/C=C/[C@H](O[C@@H]2O[C@H](C)[C@@H](O)[C@H](N)[C@@H]2O)C[C@@H]2O[C@](O)(C[C@@H](O)C[C@@H](O)[C@H](O)CC[C@@H](O)C[C@@H](O)CC(=O)O[C@H]1C)C[C@H](O)[C@H]2C(=O)O [amphotericin B] | inhibited Aspergillus niger growth | completely inhibited C. albicans growth | 
2 | OC(Cn1cncn1)(Cn1cncn1)c1ccc(F)cc1F [fluconazole] | no effect on the growth | no effect on the growth | 
3 | NH2-colicin Ia-I626-SYAIS-…-AAWDDSLH-COOH (protein, CDRs from HBV PreS-1 ScFv linked to colicin Ia, two CDRs from PreS-1 (Genbank AF427148) of HBV ScFv linked to colicin Ia) MSDPVARGITNPGAESLGYDSDGHEIMAVASPIYVASNPPRVASPVFHGTPPAWSSFGNKTIWGGNEWVASPDSPTRSDIEKRDKEITAYKNTLSAQQKENENKRTEAGKRLSAAIAAREKDENTLKTLRAGNADAADITRQEFRLLQAELREYGFRTEIAGYDALRLHTESRMLFADADSLRISPREARSLIEQAEKRQKDAQNADKKAADMLAEYERRKGILDTRLSELEKNGGAALAVLDAQQARLLGQQTRNDRAISEARNKLSSVTESLNTARNALTRAEQQLTQQKNTPDGKTIVSPEKFPGRSSTNHSIVVSGDPRFAGTIKITTSAVIDNRANLNYLLSHSGLDYKRNILNDRNPVVTEDVEGDKKIYNAEVALAEWDKLRQRLLDARNKITSAESAVASNSARNNLSARTNEQKHANDALNALLKEKENIRNQLSGINQKIAEEKRKQDELKATKDAINFTTEFLKSVSEKYGAKAEQLAREMAGQAKGKKIRNVEEALKTYEKYRADINKKINAKDRAAIAAALESVKLSDISSNLNRFSRGLGYAGKFTSLADWITEFGKAVARGTENWRPLFVKTETIIAGNAATALVALALVFSILTGSALGIIGYGLLMAVTGALIDESLVEKANKFWGISYAISWVARGQAAGQGLEWMGAAWDDSLH |  |  | Cell swelling occurred in certain cells
4 | NH2-colicinIa-I626-GFTFSDYYMS-COOH (protein, G28 - S37 from HBV HBsAg ScFV linked to Colicin Ia, heavy chain CDR1 of HBV HBsAg ScFv linked to colicin Ia at residue 626) SDPVARGITNPGAESLGYDSDGHEIMAVASPIYVASNPPRVASPVFHGTPPAWSSFGNKTIWGGNEWVASPDSPTRSDIEKRDKEITAYKNTLSAQQKENENKRTEAGKRLSAAIAAREKDENTLKTLRAGNADAADITRQEFRLLQAELREYGFRTEIAGYDALRLHTESRMLFADADSLRISPREARSLIEQAEKRQKDAQNADKKAADMLAEYERRKGILDTRLSELEKNGGAALAVLDAQQARLLGQQTRNDRAISEARNKLSSVTESLNTARNALTRAEQQLTQQKNTPDGKTIVSPEKFPGRSSTNHSIVVSGDPRFAGTIKITTSAVIDNRANLNYLLSHSGLDYKRNILNDRNPVVTEDVEGDKKIYNAEVALAEWDKLRQRLLDARNKITSAESAVASNSARNNLSARTNEQKHANDALNALLKEKENIRNQLSGINQKIAEEKRKQDELKATKDAINFTTEFLKSVSEKYGAKAEQLAREMAGQAKGKKIRNVEEALKTYEKYRADINKKINAKDRAAIAAALESVKLSDISSNLNRFSRGLGYAGKFTSLADWITEFGKAVARGTENWRPLFVKTETIIAGNAATALVALALVFSILTGSALGIIGYGLLMAVTGALIDESLVEKANKFWGIGFTFSDYYMS |  |  | Some of the treated cells died in comparison with the control and the rest became swollen and/or deformed
5 | NH2-colicinIa-I626-DEADYYCNSRDS-COOH (protein, E217 - S228 from HBV HBsAg ScFV linked to Colicin Ia, light chain CDR3 of HBV HBsAg ScFv linked to colicin Ia at residue 626) SDPVARGITNPGAESLGYDSDGHEIMAVASPIYVASNPPRVASPVFHGTPPAWSSFGNKTIWGGNEWVASPDSPTRSDIEKRDKEITAYKNTLSAQQKENENKRTEAGKRLSAAIAAREKDENTLKTLRAGNADAADITRQEFRLLQAELREYGFRTEIAGYDALRLHTESRMLFADADSLRISPREARSLIEQAEKRQKDAQNADKKAADMLAEYERRKGILDTRLSELEKNGGAALAVLDAQQARLLGQQTRNDRAISEARNKLSSVTESLNTARNALTRAEQQLTQQKNTPDGKTIVSPEKFPGRSSTNHSIVVSGDPRFAGTIKITTSAVIDNRANLNYLLSHSGLDYKRNILNDRNPVVTEDVEGDKKIYNAEVALAEWDKLRQRLLDARNKITSAESAVASNSARNNLSARTNEQKHANDALNALLKEKENIRNQLSGINQKIAEEKRKQDELKATKDAINFTTEFLKSVSEKYGAKAEQLAREMAGQAKGKKIRNVEEALKTYEKYRADINKKINAKDRAAIAAALESVKLSDISSNLNRFSRGLGYAGKFTSLADWITEFGKAVARGTENWRPLFVKTETIIAGNAATALVALALVFSILTGSALGIIGYGLLMAVTGALIDESLVEKANKFWGIDEADYYCNSRDS |  |  | A portion of the treated cells died in comparison with the control and the rest became swollen and/or deformed

— patent US20050153872A1, “Methods and compositions for the treatment of infection” (priority 2004, published 2005)
